Reference: the NIST ThermoML archive (doi:10.1016/j.jct.2019.03.023)
Where “and” joins values, the source holds several entries; their conditions need not be identical. Equal values may be shown once.

Test: molar heat capacity at constant volume
Details: Vacuum adiabatic calorimetry

CC(C)O [propan-2-ol]
Fluid (supercritical or subcritical phases)
Details	molar heat capacity at constant volume
508.38 K, Mass density=274 kg/m3	423.79 J/K/mol
508.38 K, Mass density=281.9 kg/m3	417.78 J/K/mol
508.38 K, Mass density=288.99 kg/m3	404.68 J/K/mol
508.38 K, Mass density=293.3 kg/m3	398.73 J/K/mol
508.38 K, Mass density=343.1 kg/m3	178 J/K/mol
508.47 K, Mass density=234.3 kg/m3	474.81 J/K/mol
508.47 K, Mass density=255.8 kg/m3	454.98 J/K/mol
508.47 K, Mass density=266.3 kg/m3	444.04 J/K/mol
508.47 K, Mass density=274 kg/m3	437.73 J/K/mol
508.47 K, Mass density=281.9 kg/m3	430.04 J/K/mol
508.47 K, Mass density=288.99 kg/m3	411.05 J/K/mol
508.47 K, Mass density=293.3 kg/m3	405.04 J/K/mol
508.47 K, Mass density=324.5 kg/m3	207.09 J/K/mol
508.47 K, Mass density=329.2 kg/m3	191.7 J/K/mol
508.47 K, Mass density=343.1 kg/m3	175.96 J/K/mol
508.51 K, Mass density=234.3 kg/m3	487.37 J/K/mol and 279.44 J/K/mol
508.56 K, Mass density=234.3 kg/m3	267.78 J/K/mol
508.56 K, Mass density=255.8 kg/m3	471.14 J/K/mol
508.56 K, Mass density=266.3 kg/m3	462.31 J/K/mol
508.56 K, Mass density=274 kg/m3	451.49 J/K/mol
508.56 K, Mass density=281.9 kg/m3	440.92 J/K/mol
508.56 K, Mass density=288.99 kg/m3	425.11 J/K/mol
508.56 K, Mass density=293.3 kg/m3	419.1 J/K/mol
508.56 K, Mass density=324.5 kg/m3	206.31 J/K/mol
508.56 K, Mass density=343.1 kg/m3	177.52 J/K/mol
508.57 K, Mass density=329.2 kg/m3	186.9 J/K/mol
508.61 K, Mass density=293.3 kg/m3	422.11 J/K/mol
508.66 K, Mass density=234.3 kg/m3	258.83 J/K/mol
508.66 K, Mass density=255.8 kg/m3	495.78 J/K/mol
508.66 K, Mass density=266.3 kg/m3	484.85 J/K/mol
508.66 K, Mass density=274 kg/m3	472.11 J/K/mol
508.66 K, Mass density=281.9 kg/m3	456.18 J/K/mol
508.66 K, Mass density=288.99 kg/m3	439.35 J/K/mol
508.66 K, Mass density=293.3 kg/m3	428.48 J/K/mol
508.66 K, Mass density=324.5 kg/m3	201.38 J/K/mol
508.66 K, Mass density=343.1 kg/m3	178 J/K/mol
508.67 K, Mass density=274 kg/m3	481 J/K/mol
508.67 K, Mass density=329.2 kg/m3	188.1 J/K/mol
508.68 K, Mass density=281.9 kg/m3	461.83 J/K/mol
508.68 K, Mass density=293.3 kg/m3	434.49 J/K/mol and 253.6 J/K/mol
508.69 K, Mass density=255.8 kg/m3	507.8 J/K/mol
508.69 K, Mass density=274 kg/m3	491.94 J/K/mol
508.69 K, Mass density=288.99 kg/m3	447.41 J/K/mol and 264.72 J/K/mol
508.7 K, Mass density=255.8 kg/m3	524.03 J/K/mol and 301.68 J/K/mol
508.71 K, Mass density=266.3 kg/m3	520.48 J/K/mol
508.71 K, Mass density=281.9 kg/m3	469.58 J/K/mol and 277.46 J/K/mol
508.72 K, Mass density=266.3 kg/m3	572.71 J/K/mol and 337.73 J/K/mol
508.72 K, Mass density=274 kg/m3	515.62 J/K/mol and 304.08 J/K/mol
508.72 K, Mass density=293.3 kg/m3	245.07 J/K/mol
508.73 K, Mass density=255.8 kg/m3	293.08 J/K/mol
508.74 K, Mass density=281.9 kg/m3	270.61 J/K/mol
508.75 K, Mass density=234.3 kg/m3	245.01 J/K/mol
508.75 K, Mass density=266.3 kg/m3	306.97 J/K/mol
508.75 K, Mass density=288.99 kg/m3	247.77 J/K/mol
508.75 K, Mass density=324.5 kg/m3	199.15 J/K/mol
508.75 K, Mass density=343.1 kg/m3	175.96 J/K/mol
508.76 K, Mass density=329.2 kg/m3	186.9 J/K/mol
508.84 K, Mass density=234.3 kg/m3	238.7 J/K/mol
508.84 K, Mass density=255.8 kg/m3	268.32 J/K/mol
508.84 K, Mass density=266.3 kg/m3	281.06 J/K/mol
508.84 K, Mass density=274 kg/m3	273.13 J/K/mol
508.84 K, Mass density=281.9 kg/m3	250 J/K/mol
508.84 K, Mass density=288.99 kg/m3	237.68 J/K/mol
508.84 K, Mass density=293.3 kg/m3	231.97 J/K/mol
508.84 K, Mass density=324.5 kg/m3	196.75 J/K/mol
508.84 K, Mass density=343.1 kg/m3	176.44 J/K/mol
508.94 K, Mass density=234.3 kg/m3	228.96 J/K/mol
508.94 K, Mass density=255.8 kg/m3	253 J/K/mol
508.94 K, Mass density=266.3 kg/m3	267.3 J/K/mol
508.94 K, Mass density=274 kg/m3	261.53 J/K/mol
508.94 K, Mass density=281.9 kg/m3	233.77 J/K/mol
508.94 K, Mass density=288.99 kg/m3	223.91 J/K/mol
508.94 K, Mass density=293.3 kg/m3	219.23 J/K/mol
508.94 K, Mass density=324.5 kg/m3	197.11 J/K/mol
509.02 K, Mass density=255.8 kg/m3	241.34 J/K/mol
509.03 K, Mass density=266.3 kg/m3	252.46 J/K/mol
509.03 K, Mass density=274 kg/m3	247.59 J/K/mol
509.03 K, Mass density=281.9 kg/m3	225.96 J/K/mol
509.03 K, Mass density=288.99 kg/m3	217.96 J/K/mol
509.03 K, Mass density=293.3 kg/m3	209.73 J/K/mol
509.03 K, Mass density=324.5 kg/m3	192.42 J/K/mol
509.12 K, Mass density=234.3 kg/m3	213.22 J/K/mol
509.12 K, Mass density=266.3 kg/m3	242.96 J/K/mol
509.12 K, Mass density=274 kg/m3	238.4 J/K/mol
509.12 K, Mass density=281.9 kg/m3	217.24 J/K/mol

molar heat capacity at constant volume [J/K/mol]
Details	508.51 K	508.68 K	508.69 K	508.7 K	508.71 K	508.72 K
Gas	279.44	–	–	301.68	–	337.73
Liquid	–	253.6	264.72	–	277.46	304.08
